Data reported in PubChem BioAssay AID298 (DTP/NCI, 2004).
Values joined by “and” are separate entries in the source; they are usually repeats but may differ in a detail not shown here. Equal entries are not always repeated. Results filed as inconclusive are left out.

Tested on: MX-1 breast xenograft, intrarenal, nude mice, tumor weight
Test: NCI In Vivo Anticancer Drug Screen. Data for tumor model Human Mammary Carcinoma MX-1 Xenograft (intrarenal inoculation) in NU/NU BALB/C (nude) mice
Conditions: endpoint: mean tumor weight change, higher = larger tumour
Procedure, shortened: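 Transplantable tumors established in mice; animals dosed with compound or vehicle; survival or tumor size then recorded. Result reported as treated (T) divided by vehicle control (C).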

[1] = dose: 50.0 mg/kg/injection, schedule: Q04DX003 (ip), vehicle: saline
[2] = dose: 150.0 mg/kg/injection, schedule: Q04DX003 (ip), vehicle: saline
[3] = dose: 300.0 mg/kg/injection, schedule: Q04DX003 (ip), vehicle: saline
[4] = dose: 100.0 mg/kg/injection, schedule: Q04DX003 (ip), vehicle: saline with Tween-80
[5] = dose: 200.0 mg/kg/injection, schedule: Q04DX003 (ip), vehicle: saline with Tween-80
[6] = dose: 400.0 mg/kg/injection, schedule: Q04DX003 (ip), vehicle: saline with Tween-80

CC(=O)OCC1OC([S-])C(OC(C)=O)C(OC(C)=O)C1OC(C)=O.CC[PH+](CC)CC.CC[PH+](CC)CC.[Au].[Au] (stereo unspecified)
T/C (dose: 3.13 mg/kg/injection, schedule: Q04DX003 (ip), vehicle: Klucel (hydroxypropylcellulose) (HPC)): 110 % of control
T/C (dose: 12.5 mg/kg/injection, schedule: Q04DX003 (ip), vehicle: Klucel (hydroxypropylcellulose) (HPC)): 73 % of control

O=C(O)CC1C(=O)OC2C3COC(=O)c4cc(O)c(O)c(O)c4-c4c(cc(O)c(O)c4O)C(=O)OC2C(OC(=O)c2cc(O)c(O)c4c2C1C(O)C(=O)O4)C(OC(=O)c1cc(O)c(O)c(O)c1)O3 (stereo unspecified)
T/C (dose: 25.0 mg/kg/injection, schedule: Q04DX003 (ip), vehicle: saline): 120 % of control
T/C [1]: 99 % of control
T/C (dose: 100.0 mg/kg/injection, schedule: Q04DX003 (ip), vehicle: saline): 73 % of control

CN(C)c1ccc(C(=C2C=CC(=[N+](C)C)C=C2)c2ccc(N(C)C)cc2)cc1 (tested in a mixture with another compound)
T/C (dose: 15.0 mg/kg/injection, schedule: Q04DX003 (sc), vehicle: saline with Tween-80): 124 % of control
T/C (dose: 30.0 mg/kg/injection, schedule: Q04DX003 (sc), vehicle: saline with Tween-80): 84 % of control
T/C (dose: 60.0 mg/kg/injection, schedule: Q04DX003 (sc), vehicle: saline with Tween-80): 98 % of control
T/C (dose: 120.0 mg/kg/injection, schedule: Q04DX003 (sc), vehicle: saline with Tween-80): 75 % of control
T/C (dose: 150.0 mg/kg/injection, schedule: Q04DX003 (sc), vehicle: saline with Tween-80): 73 % of control

O=C1C=CN(C2OC(CO)C(O)C2O)C(=O)C1 (stereo unspecified)
T/C (dose: 90.0 mg/kg/injection, schedule: Q01DX009 (ip), vehicle: saline): 65 % of control
T/C (dose: 133.4 mg/kg/injection, schedule: Q01DX009 (ip), vehicle: saline): 98 % of control
T/C (dose: 200.0 mg/kg/injection, schedule: Q01DX009 (ip), vehicle: saline): 89 % of control
T/C (dose: 300.0 mg/kg/injection, schedule: Q01DX009 (ip), vehicle: saline): 36 % of control

CN(N=O)C(N)=O
T/C (dose: 25.0 mg/kg/injection, schedule: Q04DX003 (sc), vehicle: saline): 80 % of control
T/C (dose: 50.0 mg/kg/injection, schedule: Q04DX003 (sc), vehicle: saline with Tween-80): 9 % of control
T/C (dose: 50.0 mg/kg/injection, schedule: Q04DX003 (sc), vehicle: saline): 26 % of control

CC#CCOCC(O)CCl (stereo unspecified)
T/C (dose: 150.0 mg/kg/injection, schedule: Q04DX003 (ip), vehicle: suspension in saline): 91 % of control and 97 % of control
T/C (dose: 300.0 mg/kg/injection, schedule: Q04DX003 (ip), vehicle: suspension in saline): 97 % of control

O=c1[nH]cc(F)c(=O)[nH]1
T/C [1]: 43 % of control

COc1cc(C(C)c2cc3c(cc2OCCO)OCO3)cc(OC)c1OC (stereo unspecified)
T/C [2]: 69 % of control
T/C [3]: 65 % of control
T/C (dose: 600.0 mg/kg/injection, schedule: Q04DX003 (ip), vehicle: saline): 21 % of control

COc1cc([C@@H]2c3cc4c(cc3[C@@H](OC3OC5COC(C)OC5C(O)C3O)[C@H]3COC(=O)[C@H]23)OCO4)cc(OC)c1O (stereo partly specified)
T/C (dose: 2.0 mg/kg/injection, schedule: Q01DX010 (ip), vehicle: saline): 58 % of control and 62 % of control
T/C (dose: 4.0 mg/kg/injection, schedule: Q01DX010 (ip), vehicle: saline): 23 % of control and 30 % of control
T/C (dose: 8.0 mg/kg/injection, schedule: Q01DX010 (ip), vehicle: saline): 5 % of control and 20 % of control
T/C (dose: 16.0 mg/kg/injection, schedule: Q01DX010 (ip), vehicle: saline): 4 % of control and 6 % of control
T/C (dose: 64.0 mg/kg/injection, schedule: Q04DX003 (ip), vehicle: saline): 76 % of control

COc1cc2cc(c1Cl)N(C)C(=O)C[C@H](OC(=O)[C@H](C)N(C)C(C)=O)[C@]1(C)O[C@H]1[C@H](C)[C@@H]1C[C@@](O)(NC(=O)O1)[C@H](OC)C=C/C=C(\C)C2
T/C (dose: 12.5 micrograms/kg/injection, schedule: Q01DX010 (sc), vehicle: Klucel (hydroxypropylcellulose) (HPC)): 152 % of control
T/C (dose: 25.0 micrograms/kg/injection, schedule: Q01DX010 (sc), vehicle: Klucel (hydroxypropylcellulose) (HPC)): 73 % of control
T/C (dose: 50.0 micrograms/kg/injection, schedule: Q01DX010 (sc), vehicle: Klucel (hydroxypropylcellulose) (HPC)): 75 % of control
T/C (dose: 100.0 micrograms/kg/injection, schedule: Q01DX010 (sc), vehicle: Klucel (hydroxypropylcellulose) (HPC)): 14 % of control
T/C (dose: 200.0 micrograms/kg/injection, schedule: Q01DX010 (sc), vehicle: Klucel (hydroxypropylcellulose) (HPC)): -78 % of control

c1ccc2c(c1)-c1ccccc1C1NC21 (stereo unspecified)
T/C (dose: 37.5 mg/kg/injection, schedule: Q04DX003 (sc), vehicle: saline with Tween-80): 60 % of control
T/C (dose: 75.0 mg/kg/injection, schedule: Q04DX003 (sc), vehicle: saline with Tween-80): 30 % of control

O=C(NC(Cc1ccc(I)cc1)C(=O)O)c1ccc(Br)cc1 (stereo unspecified)
T/C (dose: 37.5 mg/kg/injection, schedule: Q04DX003 (ip), vehicle: sodium bicarbonate): 92 % of control
T/C (dose: 150.0 mg/kg/injection, schedule: Q04DX003 (ip), vehicle: sodium bicarbonate): 87 % of control and 112 % of control
T/C (dose: 300.0 mg/kg/injection, schedule: Q04DX003 (ip), vehicle: sodium bicarbonate): 78 % of control

CN=NN(C)C(=O)NC
T/C (dose: 37.5 mg/kg/injection, schedule: Q04DX003 (ip), vehicle: saline): 112 % of control
T/C (dose: 75.0 mg/kg/injection, schedule: Q04DX003 (ip), vehicle: saline): 79 % of control
T/C (dose: 108.0 mg/kg/injection, schedule: Q04DX003 (ip), vehicle: saline): 2 % of control
T/C [2]: 15 % of control
T/C (dose: 180.0 mg/kg/injection, schedule: Q04DX003 (ip), vehicle: saline with Tween-80): 108 % of control
T/C [3]: -13 % of control
T/C (dose: 500.0 mg/kg/injection, schedule: Q04DX003 (ip), vehicle: saline with Tween-80): 124 % of control

Clc1cccc(Cl)c1C(Nc1nncs1)Nc1nncs1
T/C [4]: 94 % of control
T/C [5]: 73 % of control
T/C [6]: 44 % of control

O=C(O)[C@H](Cc1ccccc1)N1C(=O)c2ccccc2C1=O
T/C (dose: 150.0 mg/kg/injection, schedule: Q04DX003 (ip), vehicle: DMSO): 77 % of control
T/C (dose: 300.0 mg/kg/injection, schedule: Q04DX003 (ip), vehicle: DMSO): 60 % of control
T/C (dose: 600.0 mg/kg/injection, schedule: Q04DX003 (ip), vehicle: DMSO): 33 % of control

Cn1c(=S)sc2nc3ccccc3n2c1=S
T/C (dose: 30.0 mg/kg/injection, schedule: Q04DX003 (ip), vehicle: saline with Tween-80): 165 % of control
T/C (dose: 120.0 mg/kg/injection, schedule: Q04DX003 (ip), vehicle: saline with Tween-80): 42 % of control

CCN(CC)CCC(=O)OC(C(=O)O[C@H]1C[C@@]2(O)C(OC(=O)c3ccccc3)C3C4(OC(C)=O)COC4C[C@H](O)[C@@]3(C)C(=O)[C@H](OC(C)=O)C(=C1C)C2(C)C)C(NC(=O)c1ccccc1)c1ccccc1 (stereo partly specified)
T/C (dose: 4.5 mg/kg/injection, schedule: Q01DX009 (ip), vehicle: water): -100 % of control
T/C (dose: 9.0 mg/kg/injection, schedule: Q01DX009 (ip), vehicle: water): -100 % of control
T/C (dose: 18.0 mg/kg/injection, schedule: Q01DX009 (ip), vehicle: water): -100 % of control

COC1C(N)C(OC2C(Oc3cccc4c(O)c5c(=O)oc6ccc(C)c7c(=O)oc(c34)c5c67)OC(C)C(O)C2(C)O)OC(C)C1O (stereo unspecified)
T/C (dose: 2.5 mg/kg/injection, schedule: Q04DX003 (ip), vehicle: lactic acid): 90 % of control
T/C (dose: 10.0 mg/kg/injection, schedule: Q04DX003 (ip), vehicle: lactic acid): 6 % of control

CC1=C(/C=C/C(C)=C/C=C/C(C)=C/C(=O)Nc2ccc(O)cc2)C(C)(C)CCC1
T/C [4]: 67 % of control
T/C [5]: 81 % of control
T/C [6]: 58 % of control
T/C (dose: 800.0 mg/kg/injection, schedule: Q04DX003 (ip), vehicle: saline with Tween-80): 69 % of control

Cc1ccc(S(=O)(=O)NC(=O)OC23COCN2COC3)cc1
T/C (dose: 200.0 mg/kg/injection, schedule: Q04DX003 (sc), vehicle: saline with Tween-80): 123 % of control
T/C (dose: 800.0 mg/kg/injection, schedule: Q04DX003 (sc), vehicle: saline with Tween-80): 102 % of control
T/C (dose: 1600.0 mg/kg/injection, schedule: Q04DX003 (sc), vehicle: saline with Tween-80): 107 % of control

N#Cc1c(-c2ccc(F)cc2)c(-c2ccc(F)cc2)nn(CCO)c1=O
T/C (dose: 50.0 mg/kg/injection, schedule: Q04DX003 (ip), vehicle: distilled water + Tween-80): 109 % of control
T/C (dose: 400.0 mg/kg/injection, schedule: Q04DX003 (ip), vehicle: distilled water + Tween-80): -28 % of control

CCCSc1nc(COC(=O)NC)c(COC(=O)NC)n1C
T/C (dose: 30.0 mg/kg/injection, schedule: Q04DX003 (ip), vehicle: saline): 74 % of control
T/C (dose: 60.0 mg/kg/injection, schedule: Q04DX003 (ip), vehicle: saline): 76 % of control
T/C (dose: 120.0 mg/kg/injection, schedule: Q04DX003 (ip), vehicle: saline): 70 % of control
T/C (dose: 240.0 mg/kg/injection, schedule: Q04DX003 (ip), vehicle: saline): 26 % of control
